Assay results: patent US20100069340A1, “PHARMACEUTICAL COMPOSITIONS OF AN SRC KINASE INHIBITOR AND AN AROMATASE INHIBITOR” (Wyeth, priority 2008, published 2010)

What was measured:
[1] = test system: MDA-MB-361; assay: Cell proliferation assay (CellTiter Glo), MDA-MB-361; assay type: cell-based
Procedure: (§1) Cell lines were obtained from ATCC. Estrogen was obtained from SIGMA, 4-hydroxytamoxifen was obtained from SIGMA, Bosutinib was used for these studies. Charcoal-stripped serum and phenol red-free medium was obtained from Invitrogen. CellTiter Glo was obtained from Promega.
(§2) Cell cultures. Proliferation assays with cells in complete fetal calf serum were performed with medium containing phenol red. For all assays examining estrogen-dependence, cells were cultured in phenol red-free medium; DMEM/F12 (MCF7), RPMI1640 (MDA-MB-361, T47D) MEM (BT20, MDA-MB-231) McCoys5A modified (SKBR3), Leibowitz' L15 medium supplemented with 10 ng/mL insulin (MDA-MB-435 and MDA-MB-468) with 10% fetal bovine serum supplemented with glutamine and gentamicin. For proliferation assays, trypsinized cells were subjected to three cycles of centrifugation and resuspension in phenol red-free medium supplemented with charcoal stripped medium (5% final), glutamine and Pen/Strep. Cells were plated on day 0, with or without estrogen (10 nM final concentration). On day 1, 4-hydroxytamoxifen and SKI-606 or DMSO were added as a serial dilution. Cells were incubated for 7 days, after which CellTiter Glo (Promega) was added as recommended by the manufacturer. After mixing and two hours incubation on the bench, plates were read on an Envision reader. […] The 10 uM data point was dropped for these two lines since there was a clear plateau prior to the sharp drop in luminescence observed at 10 uM compound. The IC50 was calculated using a floating minima corresponding to the lowest luminescence value at 5 uM.
(§3) Cell proliferation assays were performed in two formats; a three day proliferation assay in fully supplemented medium with phenol red, and a 7 day proliferation assay in phenol red free medium supplemented with charcoal-stripped medium. […] ER positive T47D cells were slightly more sensitive to SKI-606 in the presence of estrogen. BT20 cells were equally sensitive to SKI-606 in stripped serum medium, regardless of whether estrogen was present.
(§4) Proliferation data for SKI-606 in various breast tumor lines in complete medium (10% FCS) and charcoal stripped serum with no phenol red (no E2, E2) with and without 10 nM estrogen. The complete medium data were obtained in 3-day assays, while stripped serum assays were extended for 7 days with one change of medium at day 5. The IC50 values for the BT20 line was calculated using the “plateau” cell number evident at 5 μM SKI-606.

[2] = test system: MCF7; assay: Cell proliferation assay (CellTiter Glo), MCF7; assay type: cell-based
Procedure: as §1, §2, §3, §4

Substance: 4-hydroxytamoxifen
- cell proliferation in the absence of estrogen ([1]; MDA-MB-361, absence of estrogen): little effect
- effect on estrogen-stimulated proliferation ([1]; MDA-MB-361, presence of estrogen): inhibited in a dose-dependent manner
- estrogen-independent cell proliferation ([2]; MCF7, absence of estrogen): inhibits
- effect on estrogen-stimulated proliferation ([2]; MCF7, presence of estrogen): inhibited in a dose-dependent manner
